How the values were obtained:
gastric acid secretion [1] = conditions: 15 mg/kg per os, pylorus ligated 30 min later, gastric juice after 60 min; FIG. 1
Method: Rats were administered (per os) with 15 mg/kg of sodium succinate (Na-SA) using gavage. 30 minutes later the rats were anesthetized with ketamine/domitor and the pylorus was ligated. Following additional 60 min, gastric juice was collected from the gastric lumen. Acid output was determined by titration with NaOH. Total acid output expressed in mEq HCl was calculated by multiplying the sample volume by the acid concentration. Results are expressed as means±SEM of 12 animals from each experimental group.

gastric acid secretion [2] = conditions: administered after ligation of the pylorus; FIG. 5
Method: The possibility that succinic acid induces gastric acid secretion via local effect on the gastric lumen was tested in animals in which sodium succinate was administered after the ligation of the pylorus.

[3] = test system: nocturnal gastric acid secretion; test: Clinical study: bedtime omeprazole with succinic acid one hour later, gastric pH probe; format: in vivo, human; conditions: average n = 7
Method: Succinic Acid was administered one hour following Omeprazole administration. Gastric pH was measured on Day 1 and 5 using a pH probe. The pH probe was inserted into the distal portion of the stomach and located 20 cm below the lower esophageal sphincter. Baseline measurements of gastric pH were performed before omeprazole administration and during the following 24 hours. Standard meals were administered during pH monitoring. Blood samples for PK analysis of Omeprazole were drawn on Day 1 and 5. After a washout period of at least 14 days, the same subjects were administered with Omeprazole 40 mg alone.

gastric acid secretion [4] = test: 3-way crossover clinical trial of Cap-in-Cap OMP/SA versus OMP, 24 hour intra-gastric pH; format: in vivo, human; conditions: OMP/SA at bedtime without food, OMP 20 mg before breakfast
Method: Thirty-six (36), H. pylori negative, healthy human volunteers received OMP 20 mg/SA 300 mg or OMP 40 mg/SA 300 mg at bedtime without food formulated as Cap-in-Cap capsules and OMP 20 mg dosed on an empty stomach before breakfast. These drugs were tested in a 3-way, randomized crossover study. […] Each treatment was administered once daily, for 5 consecutive days with a washout period of 21-25 days between treatments. 24 Hour intra-gastric pH monitoring was performed following the fifth dose (day 5).

gastric pH = test: Further clinical study: omeprazole and SA capsules co-administered at bedtime, 24 h gastric pH; format: in vivo, human; conditions: 10:00 pm on empty stomach
Method: In a further clinical study; healthy human volunteers were administered with Omeprazole and SA capsules which were co-administered at bed-time: Treatment T1-40 mg Omeprazole plus 600 mg SA; Treatment T2-40 mg Omeprazole plus 300 mg SA; Treatment T3-20 mg Omeprazole plus 300 mg SA. The study included gastric pH measurements on day 1 (first dose), day 3 (third dose) and day 5 (fifth dose). Study medications were administered at 10:00 pm on empty stomach and pH measurements were recorded for 24 hrs. The percentage time of gastric pH above 4 following the administration of SA and Omeprazole was calculated after the first dose, the third dose and the fifth dose.

frog mucosa = conditions: ex vivo model of frog mucosa; cited from earlier work
gastric acid output = conditions: extracted from fermented alcoholic beverages; Teyssen et al.; cited from earlier work
gastric acid secretion [5] = test: Conscious pylorus-ligated rats: pantoprazole alone or with succinic or maleic acid; format: in vivo; conditions: maleic acid 14.7 mg/kg with pantoprazole 3 mg/kg; FIG. 4
Method: This experimental model permits the analysis of the effect of drugs on gastric acid secretion in conscious animals and avoids the effect of anesthesia on gastric acid secretion. […] The ligature was placed around the esophagus, the stomach removed and gastric content was collected. Following centrifugation, the gastric output and the pH of the gastric juice samples was determined.

[6] = Day 1, bedtime dosing without a meal
[7] = Day 5, bedtime dosing without a meal

## O=C([O-])CCC(=O)[O-].[Na+].[Na+] [sodium succinate]
Gastric acid secretion [1]
  gastric acid secretion (total acid output): significantly enhanced gastric acid secretion
Gastric acid secretion [2]
  acid secretion: capable of inducing acid secretion

## COc1ccc2[nH]c([S+]([O-])Cc3ncc(C)c(OC)c3C)nc2c1 (stereo not drawn) [Omeprazole, omeprazole]
[3]; [6]
  2:00-4:00 AM (% time pH > 4): 32.72%
  4:00-6:00 AM (% time pH > 4): 52.30%
  12:00-2:00 AM (% time pH > 4): 29.57%
[3]; [7]
  2:00-4:00 AM (% time pH > 4): 53.11%
  4:00-6:00 AM (% time pH > 4): 64.94%
  12:00-2:00 AM (% time pH > 4): 52.31%
Gastric acid secretion [4]; 12 am-8 am, day 5
  Nighttime % time pH < 3: 65.5%
  Nighttime % time pH > 4: 27.2%
  Nighttime % time pH > 5: 11.5%
Gastric acid secretion [4]; day 5 (fifth dose)
  24-hour % time pH < 3: 31.2%
  24-hour % time pH > 4: 47.6%
  24-hour % time pH > 5: 21.6%
Gastric pH; Fifth dose
  % time with pH > 4 (nocturnal hours only): Fifth dose: 49%
  % time with pH > 4 (total 24 h): Fifth dose: 64%
Gastric pH; First dose
  % time with pH > 4 (nocturnal hours only): First dose: 25%
  % time with pH > 4 (total 24 h): First dose: 41%

## O=C(O)CCC(=O)C(=O)O [alpha-ketoglutarate]
Frog mucosa
  proton secretion: may stimulates proton secretion

## O=C(O)CC(O)C(=O)O (stereo not drawn) [malate]
Frog mucosa
  proton secretion: may stimulates proton secretion

## O=C(O)CCC(=O)O [Succinic acid, succinic acid]
Gastric acid output
  gastric acid output in humans: stimulate gastric acid output
Frog mucosa
  proton secretion: may stimulates proton secretion

## O=C(O)/C=C\C(=O)O [maleic acid]
Gastric acid secretion [5]
  inhibitory effect of pantoprazole on gastric acid secretion: enhanced the inhibitory effect of pantoprazole
Gastric acid output
  gastric acid output in humans: stimulate gastric acid output

Source: patent US9132082B2, “Compositions and methods for inhibiting gastric acid secretion” (Vecta, Ltd., priority 2005, dated 2015)
